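48-hour exposure; five concentrations; linearly interpolated endpoints. TGI denotes the concentration required for complete inhibition of growth.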
Legend:
Assay in all cases: growth of human tumour cells (NCI), 48 h
[1] = system: RPMI-8226 leukemia
[2] = system: LOX IMVI melanoma
[3] = system: SK-MEL-5 melanoma
[4] = system: OVCAR-8 ovarian
[5] = system: K-562 leukemia
[6] = system: EKVX NSCLC
[7] = system: NCI-H23 lung
[8] = system: HOP-62 NSCLC
[9] = system: MALME-3M melanoma
[10] = system: A549 NSCLC
[11] = system: RXF 393 renal
[12] = system: SNB-75 CNS
[13] = system: UO-31 renal
[14] = system: T-47D breast
[15] = system: HCT-116 colon
[16] = system: MDA-MB-435
[17] = system: DMS 273 small cell lung
[18] = system: SN12C renal
[19] = system: UACC-257 melanoma
[20] = system: SF-268 CNS
[21] = system: NCI-H460 lung
[22] = system: HOP-18 NSCLC
[23] = system: NCI/ADR-RES ovarian
[24] = system: M19-MEL melanoma
[25] = system: TK-10 renal
[26] = system: BT-549 breast
[27] = system: SK-MEL-28 melanoma
[28] = system: MDA-MB-231 breast
[29] = system: KM12 colon
[30] = system: HOP-92 NSCLC
[31] = system: 786-0 renal
[32] = system: SF-539 CNS
[33] = system: UACC-62 melanoma
[34] = system: COLO 205 colon
[35] = system: SNB-19 CNS
[36] = system: HT29 colon
[37] = system: CCRF-CEM leukemia
[38] = system: SF-295 CNS
[39] = system: MOLT-4 leukemia
[40] = system: SR leukemia
[41] = system: IGROV1 ovarian
[42] = system: ACHN renal
[43] = system: U251 CNS
[44] = system: HCT-15 colon
[45] = system: SNB-78 CNS
[46] = system: OVCAR-5 ovarian
[47] = system: HCC-2998 colon
[48] = system: A498 renal
[49] = system: SW-620 colon
[50] = system: M14 melanoma
[51] = system: MCF7 breast
[52] = system: OVCAR-4 ovarian
[53] = system: HS 578T breast
[54] = system: NCI-H226 lung
[55] = system: CAKI-1 renal
[56] = system: PC-3 prostate
[57] = system: DLD-1 colon
[58] = system: XF 498 CNS
[59] = system: HL-60(TB) leukemia
[60] = system: SK-MEL-2 melanoma
[61] = system: SK-OV-3 ovarian
[62] = system: OVCAR-3 ovarian
[63] = system: NCI-H522 lung
[64] = system: DMS 114 small cell lung
[65] = system: RXF-631 renal
[66] = system: LXFL 529 NSCLC

## COc1cc([C@H]2c3[nH]c4ccccc4c3C[C@H]3COC(=O)N32)cc(OC)c1O
[1]
  TGI: 11.1 µM
[2]
  TGI: 20.8 µM
[3]
  TGI: 17.4 µM
[4]
  TGI: 63.9 µM
[5]
  TGI: > 90.3 µM
[6]
  TGI: 22.7 µM
[7]
  TGI: 17.1 µM
[8]
  TGI: 34.2 µM
[9]
  TGI: > 100 µM
[10]
  TGI: 29.5 µM
[11]
  TGI: 1.51 µM
[12]
  TGI: 3.2 µM
[13]
  TGI: 29.7 µM
[14]
  TGI: > 100 µM
[15]
  TGI: 51.2 µM
[16]
  TGI: > 100 µM
[17]
  TGI: 44.2 µM
[18]
  TGI: 59.7 µM
[19]
  TGI: > 100 µM
[20]
  TGI: > 72.1 µM
[21]
  TGI: 23.2 µM
[22]
  TGI: > 100 µM
[23]
  TGI: > 100 µM
[24]
  TGI: > 100 µM
[25]
  TGI: 27 µM
[26]
  TGI: > 100 µM
[27]
  TGI: > 80 µM
[28]
  TGI: 49.8 µM
[29]
  TGI: 20.7 µM
[30]
  TGI: > 88 µM
[31]
  TGI: 10.7 µM
[32]
  TGI: 2.86 µM
[33]
  TGI: 43.4 µM
[34]
  TGI: 37.5 µM
[35]
  TGI: > 100 µM
[36]
  TGI: 25.3 µM
[37]
  TGI: 12.4 µM
[38]
  TGI: 81.8 µM
[39]
  TGI: 11.2 µM
[40]
  TGI: 0.285 µM
[41]
  TGI: > 86.3 µM
[42]
  TGI: 28.5 µM
[43]
  TGI: 19 µM
[44]
  TGI: 38.5 µM
[45]
  TGI: > 100 µM
[46]
  TGI: > 100 µM
[47]
  TGI: 27 µM
[48]
  TGI: 20.9 µM
[49]
  TGI: > 70 µM
[50]
  TGI: > 100 µM
[51]
  TGI: 37.1 µM
[52]
  TGI: > 100 µM
[53]
  TGI: 44.7 µM
[54]
  TGI: 28.5 µM
[55]
  TGI: 46.8 µM
[56]
  TGI: > 100 µM
[57]
  TGI: > 100 µM
[58]
  TGI: 43 µM
[59]
  TGI: 14.5 µM

## c1ccc(NC[Si]23OCCN(CCO2)CCO3)cc1
[60]
  TGI: > 100 µM
[1]
  TGI: > 100 µM
[61]
  TGI: > 100 µM
[3]
  TGI: > 100 µM
[4]
  TGI: > 100 µM
[5]
  TGI: > 100 µM
[6]
  TGI: > 100 µM
[62]
  TGI: > 100 µM
[7]
  TGI: > 100 µM
[9]
  TGI: > 100 µM
[10]
  TGI: > 100 µM
[11]
  TGI: > 100 µM
[12]
  TGI: > 100 µM
[13]
  TGI: > 100 µM
[15]
  TGI: > 100 µM
[17]
  TGI: > 100 µM
[18]
  TGI: > 100 µM
[19]
  TGI: > 100 µM
[20]
  TGI: > 100 µM
[21]
  TGI: > 100 µM
[22]
  TGI: > 100 µM
[24]
  TGI: > 100 µM
[25]
  TGI: > 100 µM
[63]
  TGI: > 100 µM
[27]
  TGI: > 100 µM
[29]
  TGI: > 100 µM
[64]
  TGI: > 100 µM
[30]
  TGI: > 100 µM
[31]
  TGI: > 100 µM
[32]
  TGI: > 100 µM
[33]
  TGI: > 100 µM
[34]
  TGI: > 100 µM
[35]
  TGI: > 100 µM
[36]
  TGI: > 100 µM
[37]
  TGI: > 100 µM
[38]
  TGI: > 100 µM
[39]
  TGI: > 100 µM
[65]
  TGI: > 100 µM
[40]
  TGI: > 100 µM
[41]
  TGI: > 100 µM
[42]
  TGI: > 100 µM
[43]
  TGI: > 100 µM
[45]
  TGI: > 100 µM
[46]
  TGI: > 100 µM
[47]
  TGI: > 100 µM
[48]
  TGI: > 100 µM
[66]
  TGI: > 100 µM
[49]
  TGI: > 100 µM
[54]
  TGI: > 100 µM
[55]
  TGI: > 100 µM
[57]
  TGI: > 100 µM
